What was measured:
[1] = target: DNA-dependent protein kinase catalytic subunit (Homo sapiens, UniProt P78527); assay: Inhibition of human DNA-PK catalytic subunit at 10 uM using DNA and [EPPLSQEAFADLWKK] peptide substrate by HTRF assay
[2] = target: cGMP-inhibited 3',5'-cyclic phosphodiesterase 3A (Homo sapiens, UniProt Q14432); assay: Inhibition of human PDE3A at 10 uM by HTRF assay
[3] = target: Phosphatidylinositol 4,5-bisphosphate 3-kinase catalytic subunit alpha isoform (Homo sapiens) (UniProt P42336); assay: Inhibition of wild type PI3K-alpha (unknown origin) assessed as decrease in ATP consumption at 10 uM using phosphotidylinositol bisphosphate and ATP measured after 60 mins by Kinase-Glo reagent based luminescence assay
[4] = target: Phosphatidylinositol 4,5-bisphosphate 3-kinase catalytic subunit beta isoform (Homo sapiens) (UniProt P42338); assay: Inhibition of wild type PI3K-beta (unknown origin) assessed as decrease in ATP consumption at 10 uM using phosphotidylinositol bisphosphate and ATP measured after 60 mins by Kinase-Glo reagent based luminescence assay
[5] = target: Phosphatidylinositol 4,5-bisphosphate 3-kinase catalytic subunit gamma isoform (Homo sapiens) (UniProt P48736); assay: Inhibition of wild type PI3K-gamma (unknown origin) assessed as decrease in ATP consumption at 10 uM using phosphotidylinositol bisphosphate and ATP measured after 60 mins by Kinase-Glo reagent based luminescence assay
[6] = target: T1, Phosphatidylinositol 4,5-bisphosphate 3-kinase catalytic subunit delta isoform (Homo sapiens) (UniProt O00329); assay: Inhibition of wild type PI3K-delta (unknown origin) assessed as decrease in ATP consumption at 10 uM using phosphotidylinositol bisphosphate and ATP measured after 60 mins by Kinase-Glo reagent based luminescence assay
T1 sequence (whole entry): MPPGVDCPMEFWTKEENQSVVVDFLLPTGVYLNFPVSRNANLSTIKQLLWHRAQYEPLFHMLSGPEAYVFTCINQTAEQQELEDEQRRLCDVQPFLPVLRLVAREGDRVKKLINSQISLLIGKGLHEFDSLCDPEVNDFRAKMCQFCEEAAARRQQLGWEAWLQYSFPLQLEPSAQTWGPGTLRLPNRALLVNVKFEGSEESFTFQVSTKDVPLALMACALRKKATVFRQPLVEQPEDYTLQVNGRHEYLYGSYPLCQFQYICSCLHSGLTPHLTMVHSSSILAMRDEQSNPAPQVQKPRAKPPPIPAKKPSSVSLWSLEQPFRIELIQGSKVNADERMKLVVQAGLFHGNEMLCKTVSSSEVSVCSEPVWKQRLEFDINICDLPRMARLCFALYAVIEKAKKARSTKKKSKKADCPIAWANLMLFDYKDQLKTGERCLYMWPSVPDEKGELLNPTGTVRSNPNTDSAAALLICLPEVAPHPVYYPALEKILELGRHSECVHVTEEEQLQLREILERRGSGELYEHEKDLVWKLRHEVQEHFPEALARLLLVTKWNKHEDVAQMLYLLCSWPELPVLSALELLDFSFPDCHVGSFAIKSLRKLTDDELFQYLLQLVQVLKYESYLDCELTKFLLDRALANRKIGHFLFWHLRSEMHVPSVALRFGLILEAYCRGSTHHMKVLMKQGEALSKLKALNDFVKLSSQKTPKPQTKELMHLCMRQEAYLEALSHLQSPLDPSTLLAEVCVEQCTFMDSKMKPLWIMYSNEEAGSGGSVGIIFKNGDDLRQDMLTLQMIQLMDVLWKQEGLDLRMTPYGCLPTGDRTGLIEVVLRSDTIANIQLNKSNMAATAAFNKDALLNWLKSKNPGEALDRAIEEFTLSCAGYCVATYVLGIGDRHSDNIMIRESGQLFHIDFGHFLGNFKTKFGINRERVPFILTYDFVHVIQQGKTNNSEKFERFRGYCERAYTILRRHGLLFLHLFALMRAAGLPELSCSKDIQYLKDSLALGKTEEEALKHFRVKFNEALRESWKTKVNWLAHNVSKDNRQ

[7] = target: T2, Phosphatidylinositol 4,5-bisphosphate 3-kinase catalytic subunit delta isoform (Homo sapiens, UniProt O00329); assay: Inhibition of wild type PI3K-delta (unknown origin) assessed as decrease in ATP consumption using phosphotidylinositol bisphosphate and ATP measured after 60 mins by Kinase-Glo reagent based luminescence assay
T2 sequence (O00329 whole entry): T1 sequence (whole entry)

Sequence of Phosphatidylinositol 4,5-bisphosphate 3-kinase catalytic subunit alpha isoform (Homo sapiens) (P42336 whole entry, canonical isoform): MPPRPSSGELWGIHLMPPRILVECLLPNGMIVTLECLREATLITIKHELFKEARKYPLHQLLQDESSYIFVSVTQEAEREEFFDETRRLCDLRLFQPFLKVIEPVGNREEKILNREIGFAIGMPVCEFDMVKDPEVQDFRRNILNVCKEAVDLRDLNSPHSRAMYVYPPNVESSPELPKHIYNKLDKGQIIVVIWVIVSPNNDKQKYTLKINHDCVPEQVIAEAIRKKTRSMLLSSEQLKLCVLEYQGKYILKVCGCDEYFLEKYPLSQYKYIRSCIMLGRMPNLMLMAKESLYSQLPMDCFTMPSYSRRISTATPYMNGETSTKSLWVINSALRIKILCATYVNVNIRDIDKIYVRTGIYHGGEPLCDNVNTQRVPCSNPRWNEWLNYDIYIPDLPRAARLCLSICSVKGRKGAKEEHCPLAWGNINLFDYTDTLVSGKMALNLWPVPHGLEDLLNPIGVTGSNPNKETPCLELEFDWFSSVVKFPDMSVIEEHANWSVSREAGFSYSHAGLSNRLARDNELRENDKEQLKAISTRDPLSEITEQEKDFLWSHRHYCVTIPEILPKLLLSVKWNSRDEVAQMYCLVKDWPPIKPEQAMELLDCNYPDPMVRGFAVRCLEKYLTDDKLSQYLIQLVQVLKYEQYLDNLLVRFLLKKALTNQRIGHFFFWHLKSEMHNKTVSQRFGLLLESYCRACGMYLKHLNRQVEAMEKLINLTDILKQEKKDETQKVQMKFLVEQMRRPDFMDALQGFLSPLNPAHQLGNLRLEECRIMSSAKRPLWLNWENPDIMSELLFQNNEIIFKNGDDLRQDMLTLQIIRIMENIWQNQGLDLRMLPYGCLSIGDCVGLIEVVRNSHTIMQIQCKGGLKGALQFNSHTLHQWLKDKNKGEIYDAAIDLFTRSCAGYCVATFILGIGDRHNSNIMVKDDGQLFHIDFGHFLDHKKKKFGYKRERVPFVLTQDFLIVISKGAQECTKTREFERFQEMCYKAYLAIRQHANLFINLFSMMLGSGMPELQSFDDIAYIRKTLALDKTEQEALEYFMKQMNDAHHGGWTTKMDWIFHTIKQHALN
Sequence of DNA-dependent protein kinase catalytic subunit (P78527 whole entry): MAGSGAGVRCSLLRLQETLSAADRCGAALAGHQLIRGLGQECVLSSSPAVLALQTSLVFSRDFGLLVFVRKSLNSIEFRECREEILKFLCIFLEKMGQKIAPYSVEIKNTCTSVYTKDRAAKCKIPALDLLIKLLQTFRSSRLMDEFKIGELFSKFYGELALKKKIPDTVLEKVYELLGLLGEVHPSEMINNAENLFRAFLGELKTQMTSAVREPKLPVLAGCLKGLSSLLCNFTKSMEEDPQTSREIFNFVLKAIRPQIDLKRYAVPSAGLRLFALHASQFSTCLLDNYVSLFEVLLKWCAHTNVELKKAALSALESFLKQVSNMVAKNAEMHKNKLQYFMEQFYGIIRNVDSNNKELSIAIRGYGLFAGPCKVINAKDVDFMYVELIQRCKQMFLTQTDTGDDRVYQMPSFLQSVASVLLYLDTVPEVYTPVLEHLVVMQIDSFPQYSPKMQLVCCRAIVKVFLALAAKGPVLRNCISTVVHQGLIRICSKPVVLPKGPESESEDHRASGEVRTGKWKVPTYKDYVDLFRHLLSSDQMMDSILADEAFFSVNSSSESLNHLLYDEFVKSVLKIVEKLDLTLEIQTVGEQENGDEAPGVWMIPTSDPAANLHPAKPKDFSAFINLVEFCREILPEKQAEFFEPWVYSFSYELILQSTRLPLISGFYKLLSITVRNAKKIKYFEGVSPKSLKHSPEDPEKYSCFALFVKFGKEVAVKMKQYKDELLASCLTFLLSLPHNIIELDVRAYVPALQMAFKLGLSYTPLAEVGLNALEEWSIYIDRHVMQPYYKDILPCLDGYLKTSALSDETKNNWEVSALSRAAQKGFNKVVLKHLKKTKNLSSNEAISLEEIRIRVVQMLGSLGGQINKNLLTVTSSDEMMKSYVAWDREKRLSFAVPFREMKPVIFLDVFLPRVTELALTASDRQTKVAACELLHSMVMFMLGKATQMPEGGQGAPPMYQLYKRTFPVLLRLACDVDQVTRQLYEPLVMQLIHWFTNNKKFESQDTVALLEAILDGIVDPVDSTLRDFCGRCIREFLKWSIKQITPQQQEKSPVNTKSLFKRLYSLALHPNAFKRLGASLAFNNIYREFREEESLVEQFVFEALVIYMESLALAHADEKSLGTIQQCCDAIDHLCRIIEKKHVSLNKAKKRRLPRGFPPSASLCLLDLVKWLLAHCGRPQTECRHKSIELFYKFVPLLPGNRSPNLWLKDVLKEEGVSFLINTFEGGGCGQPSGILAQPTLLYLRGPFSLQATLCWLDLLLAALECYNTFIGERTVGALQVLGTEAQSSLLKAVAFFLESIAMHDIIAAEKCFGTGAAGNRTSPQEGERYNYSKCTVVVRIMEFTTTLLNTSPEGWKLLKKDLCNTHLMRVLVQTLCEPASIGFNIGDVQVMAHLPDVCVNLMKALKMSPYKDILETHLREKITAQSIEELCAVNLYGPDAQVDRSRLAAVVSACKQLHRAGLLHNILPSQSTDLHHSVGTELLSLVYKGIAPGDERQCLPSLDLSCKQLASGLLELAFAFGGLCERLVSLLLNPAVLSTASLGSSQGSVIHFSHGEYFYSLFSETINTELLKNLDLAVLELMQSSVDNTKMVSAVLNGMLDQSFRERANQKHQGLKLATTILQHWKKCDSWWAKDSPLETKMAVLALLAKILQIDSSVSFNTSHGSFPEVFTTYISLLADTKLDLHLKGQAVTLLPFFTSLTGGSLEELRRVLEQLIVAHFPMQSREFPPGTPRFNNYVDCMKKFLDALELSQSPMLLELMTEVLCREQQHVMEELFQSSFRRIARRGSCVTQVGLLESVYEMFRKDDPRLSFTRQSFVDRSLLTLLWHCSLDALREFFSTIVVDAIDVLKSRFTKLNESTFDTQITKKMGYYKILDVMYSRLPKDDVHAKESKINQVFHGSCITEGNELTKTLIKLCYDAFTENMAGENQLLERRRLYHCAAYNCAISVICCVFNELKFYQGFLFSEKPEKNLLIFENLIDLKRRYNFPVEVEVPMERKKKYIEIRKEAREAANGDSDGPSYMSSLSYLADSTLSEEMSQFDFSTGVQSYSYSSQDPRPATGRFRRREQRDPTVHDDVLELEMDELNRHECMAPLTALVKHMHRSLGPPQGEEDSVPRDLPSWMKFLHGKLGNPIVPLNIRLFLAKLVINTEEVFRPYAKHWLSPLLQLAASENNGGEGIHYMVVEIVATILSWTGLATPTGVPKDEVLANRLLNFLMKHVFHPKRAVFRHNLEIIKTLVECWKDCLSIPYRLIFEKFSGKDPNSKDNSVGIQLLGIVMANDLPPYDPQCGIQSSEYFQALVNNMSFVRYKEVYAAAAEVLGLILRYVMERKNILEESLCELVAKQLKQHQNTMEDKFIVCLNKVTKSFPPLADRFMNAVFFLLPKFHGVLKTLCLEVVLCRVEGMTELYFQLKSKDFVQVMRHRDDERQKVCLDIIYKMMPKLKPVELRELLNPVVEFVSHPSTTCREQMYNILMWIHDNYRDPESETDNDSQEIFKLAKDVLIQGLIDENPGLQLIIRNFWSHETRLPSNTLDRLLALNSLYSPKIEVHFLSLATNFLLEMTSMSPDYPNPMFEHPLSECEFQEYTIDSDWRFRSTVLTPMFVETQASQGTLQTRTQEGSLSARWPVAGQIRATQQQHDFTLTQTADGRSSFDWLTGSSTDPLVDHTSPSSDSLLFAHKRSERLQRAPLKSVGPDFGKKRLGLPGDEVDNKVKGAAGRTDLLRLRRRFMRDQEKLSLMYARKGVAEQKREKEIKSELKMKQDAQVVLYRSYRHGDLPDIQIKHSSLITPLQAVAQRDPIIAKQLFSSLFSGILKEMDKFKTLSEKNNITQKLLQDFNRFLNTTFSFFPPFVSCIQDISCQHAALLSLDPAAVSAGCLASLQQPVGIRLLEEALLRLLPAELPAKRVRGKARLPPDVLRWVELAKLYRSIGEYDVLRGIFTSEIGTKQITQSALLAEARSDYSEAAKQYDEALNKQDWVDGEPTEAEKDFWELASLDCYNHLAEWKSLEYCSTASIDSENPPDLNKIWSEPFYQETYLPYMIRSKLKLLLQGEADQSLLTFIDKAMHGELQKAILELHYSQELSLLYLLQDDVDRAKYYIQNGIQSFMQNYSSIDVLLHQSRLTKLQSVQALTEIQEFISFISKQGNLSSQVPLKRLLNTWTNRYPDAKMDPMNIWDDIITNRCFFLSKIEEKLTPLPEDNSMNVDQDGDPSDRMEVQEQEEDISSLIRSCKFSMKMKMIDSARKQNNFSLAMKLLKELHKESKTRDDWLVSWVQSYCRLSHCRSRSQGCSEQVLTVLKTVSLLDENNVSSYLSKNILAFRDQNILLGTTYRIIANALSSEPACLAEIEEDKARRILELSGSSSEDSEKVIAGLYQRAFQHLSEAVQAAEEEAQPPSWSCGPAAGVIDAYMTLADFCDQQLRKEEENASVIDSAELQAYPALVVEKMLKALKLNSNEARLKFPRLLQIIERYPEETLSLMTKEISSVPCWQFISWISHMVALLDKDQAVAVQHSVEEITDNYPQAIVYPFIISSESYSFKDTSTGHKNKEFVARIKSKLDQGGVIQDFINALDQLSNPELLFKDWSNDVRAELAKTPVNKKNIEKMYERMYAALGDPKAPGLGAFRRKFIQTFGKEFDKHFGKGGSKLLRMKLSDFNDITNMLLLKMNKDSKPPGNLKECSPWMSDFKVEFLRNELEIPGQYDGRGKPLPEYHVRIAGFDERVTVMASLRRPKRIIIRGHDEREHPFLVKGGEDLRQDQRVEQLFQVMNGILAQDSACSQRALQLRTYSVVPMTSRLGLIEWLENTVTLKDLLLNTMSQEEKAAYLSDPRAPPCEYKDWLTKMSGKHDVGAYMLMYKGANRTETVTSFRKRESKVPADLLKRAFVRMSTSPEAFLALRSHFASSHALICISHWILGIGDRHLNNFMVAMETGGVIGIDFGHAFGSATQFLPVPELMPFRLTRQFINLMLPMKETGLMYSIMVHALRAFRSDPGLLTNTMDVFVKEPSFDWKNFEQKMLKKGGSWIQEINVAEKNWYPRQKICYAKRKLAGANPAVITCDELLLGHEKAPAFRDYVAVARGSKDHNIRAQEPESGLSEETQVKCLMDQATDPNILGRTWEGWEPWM

| SMILES | inhibition [1] | inhibition [2] | inhibition [3] | inhibition [4] | inhibition [5] | inhibition [6] | IC50 [7] |
| --- | --- | --- | --- | --- | --- | --- | --- |
| O=c1nc(N2CCOCC2)oc2c(-c3cccs3)c(OCc3cccnc3)ccc12 | 38.1% | 61.8% | 3.3% | 5.3% | 1.7% | 20.7% | – |
| O=c1nc(N2CCOCC2)oc2c(-c3ccc(Cl)cc3)c(OCc3ccccn3)ccc12 | 27% | 63.3% | 28.6% | 48.8% | 23.5% | 62.1% | 14.7 µM |
| O=c1nc(N2CCOCC2)oc2c(-c3cccs3)c(OCc3ccccc3)ccc12 | 46.1% | 59.9% | -9.9% | – | -3.5% | 9.2% | – |
| O=c1nc(N2CCOCC2)oc2c(-c3cc4ccccc4s3)c(OCc3ccncc3)ccc12 | 8.7% | 51.6% | – | – | 0.2% | 27.2% | – |
| O=c1nc(N2CCOCC2)oc2c(-c3ccsc3)c(OCc3cccnc3)ccc12 | 44% | 61.9% | -3.3% | 0.3% | 3.8% | 16.6% | – |
| Nc1cccc(-c2c(OCc3ccccc3)ccc3c(=O)nc(N4CCOCC4)oc23)c1 | 9.1% | 5.1% | 31.6% | 63.1% | 19.8% | 63.4% | – |
| COc1ccc(-c2c(OCc3ccncc3)ccc3c(=O)nc(N4CCOCC4)oc23)cc1 | 33.6% | 33.5% | 36.2% | 53.8% | – | 96.3% | 2.9 µM |
| O=c1nc(N2CCOCC2)oc2c(-c3cccnc3)c(OCc3ccccc3)ccc12 | 17.2% | 46.9% | -1.7% | 21% | -2.3% | 34.5% | – |
| O=c1nc(N2CCOCC2)oc2c(-c3cccc4c3Sc3ccccc3S4)c(OCc3ccccc3)ccc12 | -1.7% | 27.3% | – | 0.6% | – | -1% | – |
| O=c1nc(N2CCOCC2)oc2c(-c3cccs3)c(OCc3ccncc3)ccc12 | 39.2% | 55.3% | -2.9% | 5.4% | -1.5% | 24% | – |
| O=c1nc(N2CCOCC2)oc2c(-c3cccc4c3sc3ccccc34)c(OCc3ccccc3)ccc12 | 64.4% | 31.2% | – | 15.1% | – | 6.3% | – |
| O=c1nc(N2CCOCC2)oc2c(-c3ccsc3)c(OCc3ccccc3)ccc12 | 46.6% | 38.8% | 4.8% | 20.6% | – | 39.5% | – |
| Nc1cccc(-c2c(OCc3ccccn3)ccc3c(=O)nc(N4CCOCC4)oc23)c1 | 7.3% | 20% | 16.2% | 65.5% | 6.4% | 47.6% | – |
| Nc1cccc(-c2c(OCc3cccnc3)ccc3c(=O)nc(N4CCOCC4)oc23)c1 | 9.8% | – | 18.4% | 28.2% | -6.9% | 41.9% | – |
| COc1ccc(-c2c(OCc3ccccc3)ccc3c(=O)nc(N4CCOCC4)oc23)cc1 | 40% | 2.8% | 0.6% | 19.8% | -0.5% | 65.7% | – |
| O=c1nc(N2CCOCC2)oc2c(-c3ccsc3)c(OCc3ccncc3)ccc12 | 32.8% | 55.3% | 21.4% | 53.6% | 7.7% | 72.2% | – |

| SMILES | inhibition [1] | inhibition [2] | inhibition [3] | inhibition [4] | inhibition [5] | inhibition [6] | IC50 [7] |
| --- | --- | --- | --- | --- | --- | --- | --- |
| CN1CCN(CCOc2ccc3c(=O)nc(N4CCOCC4)oc3c2-c2ccc(Cl)cc2)CC1 | 11.6% | 21.8% | 12.7% | 20.3% | 1.4% | 49.4% | – |
| O=c1nc(N2CCOCC2)oc2c(-c3cc4ccccc4s3)c(OCc3ccccc3)ccc12 | – | 58.1% | -7.3% | 0.4% | -7.1% | 1.1% | – |
| O=c1nc(N2CCOCC2)oc2c(-c3ccc(Cl)cc3)c(OCc3ccncc3)ccc12 | 21.5% | 56.1% | 28.7% | 56.6% | 26.5% | 63.3% | 9.2 µM |
| O=c1nc(N2CCOCC2)oc2c(-c3ccccc3)c(OCCBr)ccc12 | 31.1% | 24% | 40.7% | 33.8% | -6.4% | 75.9% | – |
| O=c1nc(N2CCOCC2)oc2c(-c3cc4ccccc4s3)c(OCc3cccnc3)ccc12 | 8.9% | 56.4% | 2.6% | 18.1% | -8.1% | 75.6% | 2.7 µM |
| O=c1nc(N2CCOCC2)oc2c(-c3cccc4c3oc3ccccc34)c(OCc3ccccc3)ccc12 | 41.5% | 62.9% | – | – | -4.1% | -2.9% | – |
| COc1ccc(-c2c(OCc3ccccn3)ccc3c(=O)nc(N4CCOCC4)oc23)cc1 | 33.8% | 50.4% | 28.9% | 42.9% | 12.6% | 85.4% | 2.7 µM |
| O=c1nc(N2CCOCC2)oc2c(-c3cccc4ccccc34)c(OCc3ccccc3)ccc12 | 4.07% | 51.3% | – | 4.67% | – | 9.5% | – |
| O=c1nc(N2CCOCC2)oc2c(-c3ccc(Cl)cc3)c(OCc3cccnc3)ccc12 | 32.7% | 43.6% | 34.6% | 53.2% | 20% | 64.9% | 10.1 µM |
| COc1ccc(-c2c(OCc3cccnc3)ccc3c(=O)nc(N4CCOCC4)oc23)cc1 | 33.5% | 29.8% | 30% | 39.3% | -2.2% | 87.8% | 2.8 µM |
| O=c1nc(N2CCOCC2)oc2c(-c3ccccc3)c(OCc3ccccc3)ccc12 | 13.6% | 24% | 21.3% | 29.8% | 5.4% | 58.7% | – |
| COc1ccc(-c2c(OCCN3CCN(C)CC3)ccc3c(=O)nc(N4CCOCC4)oc23)cc1 | 18.1% | 11.5% | 40.3% | 44.8% | 6.23% | 73.9% | 5.68 µM |
| O=c1nc(N2CCOCC2)oc2c(-c3ccc(Cl)cc3)c(OCc3ccccc3)ccc12 | 25.7% | 31.4% | 0.2% | 11% | 9.8% | 27.4% | – |
| Nc1cccc(-c2c(OCc3ccncc3)ccc3c(=O)nc(N4CCOCC4)oc23)c1 | 10.1% | 43.6% | – | -5.5% | -5.5% | 9.7% | – |
| O=c1nc(N2CCOCC2)oc2c(-c3ccc(CO)cc3)c(OCc3ccccc3)ccc12 | 36% | 18.9% | 39.1% | 54.2% | – | 84.7% | 3.07 µM |
| O=c1nc(N2CCOCC2)oc2c(-c3ccc(Cl)cc3)c(OCCBr)ccc12 | 31% | 11.3% | -6.1% | 7.6% | – | 53.6% | – |

Reference: ChEMBL document CHEMBL4043200, “Synthesis and biological evaluation of 8-aryl-2-morpholino-7-O-substituted benzo[e][1,3]oxazin-4-ones against DNA-PK, PI3K, PDE3A enzymes and platelet aggregation” (Bioorg Med Chem, 2017)
